According to patent US20110166121A1 (LG LIFE SCIENCES LTD., priority 2008, published 2011):

Target: T1, Human P2Y12 receptor (Homo sapiens, UniProt Q9H244)
T1 construct: expressed in transfected cells; host or cells: HEK cells
Assay: Human P2Y12 receptor cell membrane binding assay with [3H] 2-Mes-ADP
Details: 1 nM [3H] 2-Mes-ADP, membranes of HEK cells expressing P2Y12 receptor; read-out: Binding activity (IC50)
Experimental: Human P2Y12 Receptor Cell Membrane Binding Assay with [^3H] 2-Mes-ADP
Whether test compounds bind to P2Y12 receptor is measured by [3H]-2MesADP binding in HEK cells expressing P2Y12 receptor. The efficacy according to the amount of test compound can be known through the above test, competitive binding test to P2Y12 receptor, in which the binding material (2-Mes-ADP) is labeled with radioactivity isotope and then the extent of inhibition against the binding of radioactively labeled material is measured.
Preparation of P2Y12 Membrane Protein Fraction
Harvested P2Y12 cells were resuspended with Hypotonic buffer (10 mM HEPES, 10 mM NaCl, 1 mM EDTA, 1 mM EGTA pH 7.4) containing protease inhibitor cocktail. Following the incubation on ice for 15 min, cells were homogenized on ice (Glass/Teflon homogenizer; 1,000 rpm, 10 strokes). The supernant was taken from centrifugation at 500×g for 15 min and then recentrifuged the supernant at 30,000 rpm for 30 min. The membrane pellet was adjusted to 1 mg/mL concentration and stored at −80° C.
P2Y12 Receptor Cell Membrane Binding Assay with [3H] 2-Mes-ADP
The volume of 100 μL of 200 μg membrane protein was aliquoted into 96 well plate. 50 μL volume of test compounds and [^3H] 2-Mes-ADP (final: 1 nM) were added into each well. The total reaction of 0.2 ml/well was incubated for 1 hour at R.T. The reaction was terminated by filtration through GF/B filter using a 96-well cell harvester. […] Radioactivity bound to P2Y12 receptor membrane was counted in a scintillation counter. Total binding was determined with CPM of test group having no compound and non-specific binding was determined with CPM of test group containing 10 μM 2-Mes-ADP. Binding inhibition percent was calculated as follows: [100−(specific binding in the presence of test material/specific binding in the absence of test material×100)].

T1 sequence (Q9H244 whole entry): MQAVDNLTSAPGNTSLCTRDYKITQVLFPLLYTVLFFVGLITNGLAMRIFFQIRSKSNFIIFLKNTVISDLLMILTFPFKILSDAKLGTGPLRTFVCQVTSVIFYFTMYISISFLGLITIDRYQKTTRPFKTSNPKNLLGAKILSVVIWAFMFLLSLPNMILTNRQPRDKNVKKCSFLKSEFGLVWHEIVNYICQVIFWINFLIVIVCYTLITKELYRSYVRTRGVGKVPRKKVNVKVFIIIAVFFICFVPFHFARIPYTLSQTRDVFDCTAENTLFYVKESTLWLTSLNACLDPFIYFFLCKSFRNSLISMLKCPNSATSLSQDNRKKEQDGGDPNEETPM

Question: Which IC50 does the source give for CCc1cc2c(N3CCn4c(nnc4C(F)(F)F)C3)nc(OCC(O)CO)nc2s1 (stereo not shown) [Example 3-49, 3-[6-Ethyl-4-(3-trifluoromethyl-5,6-dihydro-8H-[1,2,4]triazolo[4,3-a]pyrazin-7-yl)-thieno[2,3-d]pyrimidin-2-yloxy]-propane-1,2-diol] here?
Answer: Its IC50 is 0.406 µM.

Question: How did the IC50 turn out when CCCc1cc2c(N3CCn4c(nnc4C(F)(F)F)C3)nc(C(=O)OCC)nc2s1 [Example 4-1, 6-Propyl-4-(3-trifluoromethyl-5,6-dihydro-8H-[1,2,4]triazolo[4,3-a]pyrazin-7-yl)thieno[2,3-d]pyrimidine-2-carboxylic acid ethyl ester] was run?
Answer: The IC50 was 0.24 µM.

Question: CCCc1cc2c(N3CCn4c(nnc4C(F)(F)F)C3)nc(C(=O)O)nc2s1 [Example 4-2, 6-Propyl-4-(3-trifluoromethyl-5,6-dihydro-8H-[1,2,4]triazolo[4,3-a]pyrazin-7-yl)-thieno[2,3-d]pyrimidine-2-carboxylic acid] was tested. Which IC50 did it give?
Answer: The IC50 was 3.05 µM.

Question: Which IC50 does the source give for CCc1cc2c(N3CCn4c(nnc4C(F)(F)F)C3)nc(C(=O)NCC(=O)O)nc2s1 [Example 4-4, {[6-Ethyl-4-(3-trifluoromethyl-5,6-dihydro-8H-[1,2,4]triazolo[4,3-a]pyrazin-7-yl)-thieno[2,3-d]pyrimidine-2-carbonyl]amino}acetic acid] here?
Answer: The IC50 was 1 µM.

Question: How did the IC50 turn out when CCc1cc2c(N3CCn4c(nnc4C(F)(F)F)C3)nc(C(=O)NCCO)nc2s1 [Example 4-5, 6-Ethyl-4-(3-trifluoromethyl-5,6-dihydro-8H-[1,2,4]triazolo[4,3-a]pyrazin-7-yl)thieno[2,3-d]pyrimidine-2-carboxylic acid (2-hydroxy-ethyl)amide] was run?
Answer: The IC50 was 1.58 µM.

Question: CCc1cc2c(N3CCn4c(nnc4C(F)(F)F)C3)nc(CN3CC[C@@H](O)C3)nc2s1 [Example 4-20, (R)-1-[6-Ethyl-4-(3-trifluoromethyl-5,6-dihydro-8H-[1,2,4]triazolo[4,3-a]pyrazin-7-yl)thieno[2,3-d]pyrimidin-2-ylmethyl]pyrrolidin-3-ol] was tested. Which IC50 did it give?
Answer: The IC50 was 4.21 µM.

Question: With CCc1nc2c(N3CCn4c(nnc4C(F)(F)F)C3)nc(N3CCNC(=O)C3)nc2s1 [Example 5-1, 4-[2-Ethyl-7-(3-trifluoromethyl-5,6-dihydro-8H-[1,2,4]triazolo[4,3-a]pyrazin-7-yl)-thiazolo[5,4-d]pyrimidin-5-yl]-piperazin-2-one] as the compound, how does the IC50 read?
Answer: The IC50 was 0.68 µM.

Question: With CCc1nc2c(N3CCn4c(nnc4C(F)(F)F)C3)nc(NCCO)nc2s1 [Example 5-2, 2-[2-Ethyl-7-(3-trifluoromethyl-5,6-dihydro-8H-[1,2,4]triazolo[4,3-a]pyrazin-7-yl)-thiazolo[5,4-d]pyrimidin-5-ylamino]-ethanol] as the compound, how does the IC50 read?
Answer: Its IC50 is 2.32 µM.

Question: How did the IC50 turn out when CCc1nc2c(N3CCn4c(nnc4C(F)(F)F)C3)nc(N3CCN(C)CC3)nc2s1 [Example 5-3, 2-Ethyl-5-(4-methyl-piperazin-1-yl)-7-(3-trifluoromethyl-5,6-dihydro-8H-[1,2,4]triazolo[4,3-a]pyrazin-7-yl)-thiazolo[5,4-d]pyrimidine] was run?
Answer: Its IC50 is 1.15 µM.

Question: With CCc1cc2c(N3CCn4c(nnc4C(F)(F)C(F)(F)F)C3)nc(N3CCNC(=O)C3)nc2s1 [Example 6-1, 4-[6-Ethyl-4-(3-pentafluoroethyl-5,6-dihydro-8H-[1,2,4]triazolo[4,3-a]pyrazin-7-yl)-thieno[2,3-d]pyrimidin-2-yl]-piperazin-2-one] as the compound, how does the IC50 read?
Answer: Its IC50 is 0.133 µM.

Question: Which IC50 does the source give for CCc1cc2c(N3CCn4c(nnc4C(F)(F)C(F)(F)F)C3)nc(NCC(O)CO)nc2s1 (stereo not shown) [Example 6-2, 3-[6-Ethyl-4-(3-pentafluoroethyl-5,6-dihydro-8H-[1,2,4]triazolo[4,3-a]pyrazin-7-yl)-thieno[2,3-d]pyrimidin-2-ylamino]-propane-1,2-diol] here?
Answer: The IC50 was 1.2 µM.

Question: How did the IC50 turn out when CCc1cc2c(N3CCn4cnnc4C3)nc(N3CCNC(=O)C3)nc2s1 [Example 6-10, 4-[4-(5,6-Dihydro-8H-[1,2,4]triazolo[4,3-a]pyrazin-7-yl)-6-ethyl-thieno[2,3-d]pyrimidin-2-yl]-piperazin-2-one] was run?
Answer: Its IC50 is 7 µM.

Question: CCc1cc2c(N3CCn4c(nnc4-c4ccccc4)C3)nc(N3CCNC(=O)C3)nc2s1 [Example 6-19, 4-[6-Ethyl-4-(3-phenyl-5,6-dihydro-8H-[1,2,4]triazolo[4,3-a]pyrazin-7-yl)-thieno[2,3-d]pyrimidin-2-yl]-piperazin-2-one] was tested. Which IC50 did it give?
Answer: The IC50 was 1.95 µM.

Question: CCc1cc2c(N3CCn4ccnc4C3)nc(N3CCNC(=O)C3)nc2s1 [Example 6-20, 4-[4-(5,6-Dihydro-8H-imidazo[1,2-a]pyrazin-7-yl)-6-ethyl-thieno[2,3-d]pyrimidin-2-yl]-piperazin-2-one] was tested. Which IC50 did it give?
Answer: The IC50 was 7.64 µM.

Question: Which IC50 does the source give for CCc1cc2c(N3CCn4ccnc4C3)nc(OCC(O)CO)nc2s1 (stereo not shown) [Example 6-21, 3-[4-(5,6-Dihydro-8H-imidazo[1,2-a]pyrazin-7-yl)-6-ethyl-thieno[2,3-d]pyrimidin-2-yloxy]-propane-1,2-diol] here?
Answer: Its IC50 is 14.5 µM.

Question: CCc1cc2c(N3CCn4cc(C(F)(F)F)nc4C3)nc(N3CCNC(=O)C3)nc2s1 [Example 6-22, 4-[6-Ethyl-4-(2-trifluoromethyl-5,6-dihydro-8H-imidazo[1,2-a]pyrazin-7-yl)-thieno[2,3-d]pyrimidin-2-yl]-piperazin-2-one] was tested. Which IC50 did it give?
Answer: Its IC50 is 10 µM.

Question: For CCc1cc2c(N3CCn4cc(C(F)(F)F)nc4C3)nc(OCC(O)CO)nc2s1 (stereo not shown) [Example 6-23, 3-[6-Ethyl-4-(2-trifluoromethyl-5,6-dihydro-8H-imidazo[1,2-a]pyrazin-7-yl)-thieno[2,3-d]pyrimidin-2-yloxy]-propane-1,2-diol], which IC50 is on record?
Answer: Its IC50 is 12 µM.

Question: How did the IC50 turn out when CCc1cc2c(N3CCc4[nH]ncc4C3)nc(N3CCNC(=O)C3)nc2s1 [Example 6-24, 4-[6-Ethyl-4-(1,4,6,7-tetrahydro-pyrazolo[4,3-c]pyridin-5-yl)-thieno[2,3-d]pyrimidin-2-yl]-piperazin-2-one] was run?
Answer: The IC50 was 30 µM.

Question: How did the IC50 turn out when CCc1cc2c(N3CCc4[nH]nc(C(F)(F)F)c4C3)nc(N3CCNC(=O)C3)nc2s1 [Example 6-26, 4-[6-Ethyl-4-(3-trifluoromethyl-1,4,6,7-tetrahydro-pyrazolo[4,3-c]pyridin-5-yl)-thieno[2,3-d]pyrimidin-2-yl]-piperazin-2-one] was run?
Answer: Its IC50 is 16.4 µM.

Question: CCc1cc2c(N3CCc4ccccc4C3)nc(N3CCNC(=O)C3)nc2s1 [Example 6-27, 4-[4-(3,4-Dihydro-1H-isoquinolin-2-yl)-6-ethyl-thieno[2,3-d]pyrimidin-2-yl]-piperazin-2-one] was tested. Which IC50 did it give?
Answer: The IC50 was 10 µM.

Question: How did the IC50 turn out when CCc1cc2c(N3CCc4cc(OC)c(OC)cc4C3)nc(N3CCNC(=O)C3)nc2s1 [Example 6-28, 4-[4-(6,7-Dimethoxy-3,4-dihydro-1H-isoquinolin-2-yl)-6-ethyl-thieno[2,3-d]pyrimidin-2-yl]-piperazin-2-one] was run?
Answer: Its IC50 is 5.6 µM.

Question: How did the IC50 turn out when CCc1cc2c(N3CCc4c([nH]c5ccccc45)C3)nc(N3CCNC(=O)C3)nc2s1 [Example 6-29, 4-[6-Ethyl-4-(1,3,4,9-tetrahydro-beta-carbolin-2-yl)-thieno[2,3-d]pyrimidin-2-yl]-piperazin-2-one] was run?
Answer: Its IC50 is 29.8 µM.

Question: How did the IC50 turn out when CCc1cc2c(N3CCc4c(ncnc4C(F)(F)F)C3)nc(N3CCNC(=O)C3)nc2s1 [Example 6-30, 4-[6-Ethyl-4-(4-trifluoromethyl-5,8-dihydro-6H-pyrido[3,4-d]pyrimidin-7-yl)-thieno[2,3-d]pyrimidin-2-yl]-piperazin-2-one] was run?
Answer: Its IC50 is 1.04 µM.

Question: With CCc1cc2c(N3CCc4c(nc(C(F)(F)F)nc4C(F)(F)F)C3)nc(N3CCNC(=O)C3)nc2s1 [Example 6-31, 4-[4-(2,4-Bis-trifluoromethyl-5,8-dihydro-6H-pyrido[3,4-d]pyrimidin-7-yl)-6-ethyl-thieno[2,3-d]pyrimidin-2-yl]-piperazin-2-one] as the compound, how does the IC50 read?
Answer: The IC50 was 4.66 µM.

Question: With CCc1cc2c(N3CCc4c(nc(C(F)(F)F)nc4C(F)(F)F)C3)nc(OCC(O)CO)nc2s1 (stereo not shown) [Example 6-32, 3-[4-(2,4-Bis-trifluoromethyl-5,8-dihydro-6H-pyrido[3,4-d]pyrimidin-7-yl)-6-ethyl-thieno[2,3-d]pyrimidin-2-yloxy]-propane-1,2-diol] as the compound, how does the IC50 read?
Answer: The IC50 was 4.64 µM.

Same assay, conditions: 30 μM compound; 1 nM [3H] 2-Mes-ADP

Question: How did the inhibition at 30 µM turn out when CCCc1cc2c(N3CCn4c(nnc4C(F)(F)F)C3)nc(Sc3ccccc3)nc2s1 [Example 3-52, 7-(2-Phenylsulfanyl-6-propyl-thieno[2,3-d]pyrimidin-4-yl)-3-trifluoromethyl-5,6,7,8-tetrahydro-[1,2,4]triazolo[4,3-a]pyrazine] was run?
Answer: The inhibition at 30 µM was 20%.

Question: For CCc1cc2c(N3CCn4cnnc4C3)nc(OCC(O)CO)nc2s1 (stereo not shown) [Example 6-11, 3-[4-(5,6-Dihydro-8H-[1,2,4]triazolo[4,3-a]pyrazin-7-yl)-6-ethyl-thieno[2,3-d]pyrimidin-2-yloxy]-propane-1,2-diol], which inhibition at 30 µM is on record?
Answer: The inhibition at 30 µM was 39.3%.

Question: With CCc1cc2c(N3CCc4[nH]ncc4C3)nc(OCC(O)CO)nc2s1 (stereo not shown) [Example 6-25, 3-[6-Ethyl-4-(1,4,6,7-tetrahydro-pyrazolo[4,3-c]pyridin-5-yl)-thieno[2,3-d]pyrimidin-2-yloxy]-propane-1,2-diol] as the compound, how does the inhibition at 30 µM read?
Answer: Its inhibition at 30 µM is 38.6%.
